# From US12157730B2, “Heteroaryl derivative, method for producing same, and pharmaceutical composition comprising same as effective component” (VORONOI INC., priority 2019, dated 2024)
# Target: T1, Ba/F3 cell EGFR Exon20 ins NPH (Homo sapiens, UniProt P00533, INS773NPH)
# T1 construct: expressed in transfected cells; host or cells: Ba/F3
# Experiment: Ba/F3 cell proliferation suppression, EGFR Exon20 ins NPH
# Assay type: cell-based
# Settings: GI50 class; Ba/F3 cell line with NPH inserted at Exon20 of EGFR; 72 hours
# In short: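 Growth suppression determined as GI50 following 72 h exposure across 12 concentrations up to 50 um, with viability by luminescent ATP assay (CellTiter-Glo).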
row,SMILES,Ba/F3 (NPH) Activity
1,"C=CC(=O)Nc1cc(Nc2cc(N3OCC[C@@H]3c3cccc(C#N)c3)ncn2)c(OC)cc1N(C)CCN(C)C [compound 392, N-(5-((6-((R)-3-(3-cyanophenyl)isoxazolidine-2-yl)pyrimidine-4-yl)amino)-2-((2-(dimethylamino)ethyl)(methyl)amino)-4-methoxyphenyl) acrylamide]",A (GI50 < 50 nM)
2,"C=CC(=O)Nc1cc(Nc2cc(N3OCC[C@@H]3c3cc(F)cc(F)c3)ncn2)c(OC)cc1N1CCC(N2C[C@@H](C)N(C3CC3)C[C@H]2C)CC1 [Example 114, N-(2-(4-((2R,5R)-4-cyclopropyl-2,5-dimethylpiperazine-1-yl)piperidine-1-yl)-5-((6-((R)-3-(3,5-difluorophenyl)isoxazolidine-2-yl)pyrimidine-4-yl)amino)-4-methoxyphenyl) acrylamide]",A (GI50 < 50 nM)
3,"COc1cc(N2CCC(N3CCN(C4CC4)CC3)CC2)c(NC(=O)/C=C/CN(C)C)cc1Nc1cc(N2OCC[C@@H]2c2cc(F)cc(F)c2)ncn1 [Example 117, N-(2-(4-(4-cyclopropylpiperazine-1-yl)piperidine-1-yl)-5-((6-((R)-3-(3,5-difluorophenyl)isoxazolidine-2-yl)pyrimidine-4-yl)amino)-4-methoxyphenyl)-(E)-4-(dimethylamino) but-2-enamide]",A (GI50 < 50 nM)
4,"C=CC(=O)Nc1cc(Nc2cc(N3OCC[C@@H]3c3cccc(C#N)c3)ncn2)c(OC)cc1N1CCC(N2CCN(C3CC3)[C@H](C)C2)CC1 [Example 126, N-(5-((6-((R)-3-(3-cyanophenyl)isoxazolidine-2-yl)pyrimidine-4-yl)amino)-2-(4-((R)-4-cyclopropyl-3-methylpiperazine-1-yl)piperidine-1-yl)-4-methoxyphenyl) acrylamide]",A (GI50 < 50 nM)
5,"C=CC(=O)Nc1cc(Nc2cc(N3OCC[C@@H]3c3cccc(Cl)c3)ncn2)c(OC)cc1N1CCC(N2C[C@H]3C[C@@H]2CO3)CC1 [compound 472, N-(2-(4-((1R,4R)-2-oxa-5-azabicyclo[2.2.1]heptane-5-yl)piperidine-1-yl)-5-((6-((R)-3-(3-chlorophenyl)isoxazolidine-2-yl)pyrimidine-4-yl)amino)-4-methoxyphenyl) acrylamide]",A (GI50 < 50 nM)
6,"C=CC(=O)Nc1cc(Nc2cc(N3OCC[C@@H]3c3cc(F)ccc3F)ncn2)c(OC)cc1N1CCC(N2CCN(C3CCC3)CC2)CC1 [Example 77, N-(2-(4-(4-cyclobutylpiperazine-1-yl)piperidine-1-yl)-5-((6-((R)-3-(2,5-difluorophenyl)isoxazolidine-2-yl)pyrimidine-4-yl)amino)-4-methoxyphenyl) acrylamide]",A (GI50 < 50 nM)
7,"C=CC(=O)Nc1cc(Nc2cc(N3OCC[C@@H]3c3cccc(F)c3)ncn2)c(OC)cc1N1CC[C@@H](N(C)C)C1 [Example 247, N-(2-((R)-3-(dimethylamino)pyrolidine-1-yl)-5-((6-((R)-3-(3-fluorophenyl)isoxazolidine-2-yl)pyrimidine-4-yl)amino)-4-methoxyphenyl) acrylamide]",A (GI50 < 50 nM)
8,"C=CC(=O)Nc1cc(Nc2cc(N3OCC[C@@H]3c3cccc(Cl)c3F)ncn2)c(OC)cc1N1CCC(N2C[C@@H](C)N(C3CC3)C[C@H]2C)CC1 [Example 122, N-(5-((6-((R)-3-(3-chloro-2-fluorophenyl)isoxazolidine-2-yl)pyrimidine-4-yl)amino)-2-(4-((2R,5R)-4-cyclopropyl-2,5-dimethylpiperazine-1-yl)piperidine-1-yl)-4-methoxyphenyl) acrylamide]",A (GI50 < 50 nM)

# Next, values leading:
row,Ba/F3 (NPH) Activity,SMILES
1,A (GI50 < 50 nM),"C=CC(=O)Nc1cc(Nc2cc(N3OCC[C@@H]3c3c(F)ccc(F)c3F)ncn2)c(OC)cc1N1CCC(N2CCN(C(C)C)CC2)CC1 [compound 643, N-(2-(4-(4-isopropylpiperazine-1-yl)piperidine-1-yl)-4-methoxy-5-((6-((R)-3-(2,3,6-trifluorophenyl)isoxazolidine-2-yl)pyrimidine-4-yl)amino)phenyl)acrylamide]"
2,B (50 nM ≤ GI50 < 500 nM),"C=CC(=O)Nc1cc(Nc2cc(N3OCC[C@@H]3c3ccc(Cl)c(F)c3)ncn2)c(OC)cc1N(C)CCOC [compound 853, N-(5-((6-((R)-3-(4-chloro-3-fluorophenyl)isoxazolidine-2-yl)pyrimidine-4-yl)amino)-4-methoxy-2-((2-methoxyethyl)(methyl)amino)phenyl) acrylamide]"
3,B (50 nM ≤ GI50 < 500 nM),"C#Cc1cccc([C@H]2CCON2c2cc(Nc3cc(NC(=O)C=C)c(N4CCN(C5CC5)CC4)cc3OC)ncn2)c1 [compound 654, N-(2-(4-cyclopropylpiperazine-1-yl)-5-((6-((R)-3-(3-ethynylphenyl)isoxazolidine-2-yl)pyrimidine-4-yl)amino)-4-methoxyphenyl) acrylamide]"
4,B (50 nM ≤ GI50 < 500 nM),"C=CC(=O)Nc1cc(Nc2cc(N3OCC[C@@H]3c3c(F)ccc(F)c3F)ncn2)c(OC)cc1N1CC[C@@H](N(C)C)C1 [compound 630, N-(2-((R)-3-(dimethylamino)pyrolidine-1-yl)-4-methoxy-5-((6-((R)-3-(2,3,6-trifluorophenyl)isoxazolidine-2-yl)pyrimidine-4-yl)amino)phenyl)acrylamide]"
5,A (GI50 < 50 nM),"C=CC(=O)Nc1cc(Nc2cc(N3OCC[C@@H]3c3cc(F)cc(F)c3)ncn2)c(OC)cc1N1CCN(C)[C@@H](C)C1 [compound 916, N-(5-((6-((R)-3-(3,5-difluorophenyl)isoxazolidine-2-yl)pyrimidine-4-yl)amino)-2-((S)-3,4-dimethylpiperazine-1-yl)-4-methoxyphenyl) acrylamide]"
6,A (GI50 < 50 nM),"C=CC(=O)Nc1cc(Nc2cc(N3OCC[C@@H]3c3ccc(F)c(Cl)c3)ncn2)c(OC)cc1N1CCC(N2CCN(C)CC2)CC1 [compound 719, N-(5-((6-((R)-3-(3-chloro-4-fluorophenyl)isoxazolidine-2-yl)pyrimidine-4-yl)amino)-4-methoxy-2-(4-(4-methylpiperazine-1-yl)piperidine-1-yl)phenyl) acrylamide]"
7,A (GI50 < 50 nM),"C=CC(=O)Nc1cc(Nc2cc(N3OCC[C@@H]3c3cc(F)ccc3F)ncn2)c(OC)cc1N1CCN(C2CC2)C[C@@H]1C [compound 879, N-(2-((S)-4-cyclopropyl-2-methylpiperazine-1-yl)-5-((6-((R)-3-(2,5-difluorophenyl)isoxazolidine-2-yl)pyrimidine-4-yl)amino)-4-methoxyphenyl) acrylamide]"
8,A (GI50 < 50 nM),"C=CC(=O)Nc1cc(Nc2cc(N3OCC[C@@H]3c3c(F)ccc(F)c3F)ncn2)c(OC)cc1N1CCC(N2C[C@@H](C)O[C@@H](C)C2)CC1 [compound 644, N-(2-(4-((2S,6R)-2,6-dimethylmorpholino)piperidine-1-yl)-4-methoxy-5-((6-((R)-3-(2,3,6-trifluorophenyl)isoxazolidine-2-yl)pyrimidine-4-yl)amino)phenyl)acrylamide]"
9,A (GI50 < 50 nM),"C=CC(=O)Nc1cc(Nc2cc(N3OCC[C@@H]3c3ccc(Cl)c(F)c3)ncn2)c(OC)cc1N1CCOCC1 [compound 854, N-(5-((6-((R)-3-(4-chloro-3-fluorophenyl)isoxazolidine-2-yl)pyrimidine-4-yl)amino)-4-methoxy-2-morpholinophenyl) acrylamide]"
